Measurements reported in patent US12389911B2, “Benzimidazole compound or salt thereof, agricultural and horticultural insecticidal and acaricidal agent containing said compound, and method for using same” (NIHON NOHYAKU CO., LTD., priority 2019, dated 2025).

Tested on: Two-spotted spider mite (Tetranychus urticae)
Assay: Acaricidal action on two-spotted spider mite (kidney bean leaf disk spray)
Format: in vivo
Settings: 500 ppm, adult females, 25° C., two days after treatment
Method: Acaricidal Action on Two-Spotted Spider Mite (Tetranychus urticae)
Leaf disk having a diameter of 2 cm was prepared by leaves of kidney bean, and the leaf disk was placed on the wetted filter paper. Adult hens of two-spotted spider mite were inoculated on the wetted filter paper, and then 50 ml of an agrochemical dispersion, prepared by diluting a formulation containing the benzimidazole compound represented by the general formula (1) of the present invention or salt thereof as an active ingredient to adjust each of the concentrations to 500 ppm, was sprayed on turntable uniformly. After the spraying, it was allowed to stand in a thermostatic chamber at 25° C. Two days after the treatment of an agrochemical dispersion, the dead mites were counted, the corrected mortality rate was calculated according to the formula shown below, and the acaricidal efficacy was evaluated according to the criteria of Test Example 2. This test was conducted in duplicate using 10 adult hens of two-spotted spider per plot. Corrected mortality(%)=(Number of dead mites in a non-treatment plot−Number of dead mites in a treatment plot)/(Number of dead mites in a non-treatment plot)×100 [Expression 4]

How did the “acaricidal efficacy (corrected mortality rate), activity level” value (shortened to “acaricidal efficacy”) turn out when CCS(=O)(=O)n1c(-n2cc(C(=O)OC(C)(C)C)c(CCc3ccccc3)n2)nc2ccccc21 [Compound 2-89] was run?
The value was “D or higher”.

CCS(=O)(=O)n1c(-n2cnc(C(F)(F)C(F)(F)F)n2)nc2ccccc21 [Compound 3-2] was tested. Which “acaricidal efficacy” value did it give?
Its value is “D or higher”.

How did the “acaricidal efficacy” value turn out when CCS(=O)(=O)n1c(-n2cnc(C(F)(F)C(F)(F)C(F)(F)C(F)(F)C(F)(F)C(F)(F)F)c2)nc2ccccc21 [Compound 1-28] was run?
The value was “D or higher”.

Which “acaricidal efficacy” value does the source give for CCS(=O)(=O)n1c(-n2cc(I)c(C(F)(F)F)n2)nc2ccccc21 [Compound 2-16] here?
Its value is “D or higher”.

How did the “acaricidal efficacy” value turn out when CCS(=O)(=O)n1c(-n2cc(/C=C/C(=O)OCC(C)(C)C)c(C(F)(F)F)n2)nc2ccccc21 [Compound 2-113] was run?
The value was “D or higher”.

How did the “acaricidal efficacy” value turn out when CCS(=O)(=O)n1c(-n2cnc(SC)n2)nc2ccccc21 [Compound 3-4] was run?
Its value is “D or higher”.

For CCOC(=O)c1cn(-c2nc3ccccc3n2S(=O)(=O)CC)nc1I [Compound 2-81], which “acaricidal efficacy” value is on record?
The value was “D or higher”.

For CCOC(=O)c1cn(-c2nc3ccccc3n2S(=O)(=O)CC)nc1C(F)F [Compound 2-33], which “acaricidal efficacy” value is on record?
Its value is “D or higher”.

How did the “acaricidal efficacy” value turn out when CCOC(=O)c1cn(-c2nc3ccccc3n2S(=O)(=O)CC)nc1/C=C/C1CC1 [Compound 2-80] was run?
The value was “D or higher”.

CCS(=O)(=O)n1c(-n2cc(C(=O)OC(C)(C)C)c(C=C(C)C)n2)nc2ccccc21 [Compound 2-86] was tested. Which “acaricidal efficacy” value did it give?
The value was “D or higher”.

For CCS(=O)(=O)n1c(-n2cc([S+]([O-])C(C)C)c(C(F)(F)F)n2)nc2ccccc21 (stereo not shown) [Compound 2-55], which “acaricidal efficacy” value is on record?
Its value is “D or higher”.

For CCS(=O)(=O)n1c(-n2cc(S(=O)(=O)N(C)C)c(C(F)(F)F)n2)nc2ccccc21 [Compound 2-120], which “acaricidal efficacy” value is on record?
The value was “D or higher”.

CCS(=O)(=O)n1c(-n2cc(CCC(C)(C)C)c(C(=O)OC(C)(C)C)n2)nc2ccccc21 [Compound 2-137] was tested. Which “acaricidal efficacy” value did it give?
Its value is “D or higher”.

For CCS(=O)(=O)n1c(-n2cnc(COc3ccc(C(F)(F)F)cc3)c2)nc2ccccc21 [Compound 1-16], which “acaricidal efficacy” value is on record?
The value was “D or higher”.

How did the “acaricidal efficacy” value turn out when CCS(=O)(=O)n1c(-n2cnc(CCc3ccc(C(C)(C)C)cc3)c2)nc2ccccc21 [Compound 1-10] was run?
Its value is “D or higher”.

CCS(=O)(=O)n1c(-n2cc(CCC3CC3)c(C(F)(F)F)n2)nc2ccccc21 [Compound 2-126] was tested. Which “acaricidal efficacy” value did it give?
Its value is “D or higher”.

Which “acaricidal efficacy” value does the source give for CCS(=O)(=O)n1c(-n2cc(CCc3ccccc3)c(OCC(F)(F)F)n2)nc2ccccc21 [Compound 2-101] here?
Its value is “D or higher”.

How did the “acaricidal efficacy” value turn out when CCS(=O)(=O)n1c(-n2cnc(COc3ccc(OC(F)(F)F)cc3)c2)nc2ccccc21 [Compound 1-17] was run?
Its value is “D or higher”.

For CCS(=O)(=O)n1c(-n2cc(C(=O)OC(C)(C)C)c(OCC(F)(F)C(F)(F)F)n2)nc2ccccc21 [Compound 2-52], which “acaricidal efficacy” value is on record?
Its value is “D or higher”.

How did the “acaricidal efficacy” value turn out when CCS(=O)(=O)n1c(-n2cc(C(=O)OC(C)(C)C)c(CC(C)C)n2)nc2ccccc21 [Compound 2-87] was run?
The value was “D or higher”.

Which “acaricidal efficacy” value does the source give for CCS(=O)(=O)n1c(-n2cc(Cc3ccccc3)c(C(F)(F)F)n2)nc2ccccc21 [Compound 2-22] here?
Its value is “D or higher”.

CCS(=O)(=O)n1c(-n2cc(C#CCOC(=O)C(C)(C)C)c(C(F)(F)F)n2)nc2ccccc21 [Compound 2-132] was tested. Which “acaricidal efficacy” value did it give?
Its value is “D or higher”.

Which “acaricidal efficacy” value does the source give for CCS(=O)(=O)n1c(-n2cc(/C=C/C(=O)OCc3ccc(C(C)(C)C)cc3)c(C(F)(F)F)n2)nc2ccccc21 [Compound 2-114] here?
The value was “D or higher”.

CCS(=O)(=O)n1c(-n2nc(COC(C)(C)C)c(C(=O)OC(C)(C)C)c2C)nc2ccccc21 [Compound 2-91] was tested. Which “acaricidal efficacy” value did it give?
Its value is “D or higher”.

With CCS(=O)(=O)n1c(-n2cc(C(=O)NC(C)(C)C)c(C(C)(C)C)n2)nc2ccccc21 [Compound 2-97] as the compound, how does the “acaricidal efficacy” value read?
The value was “D or higher”.

CCS(=O)(=O)n1c(-n2cc(C(=O)OC(C)(C)C)c(OCC(F)F)n2)nc2ccccc21 [Compound 2-77] was tested. Which “acaricidal efficacy” value did it give?
The value was “D or higher”.

For CCS(=O)(=O)n1c(-n2cc(C(=O)OC(C)(C)C)c(C3CC3)n2)nc2ccccc21 [Compound 2-50], which “acaricidal efficacy” value is on record?
The value was “D or higher”.

For CCS(=O)(=O)n1c(-n2cc(C(=O)OC(C)(C)C)c(/C=C/C3CC3)n2)nc2ccccc21 [Compound 2-83], which “acaricidal efficacy” value is on record?
Its value is “D or higher”.

With CCCOc1nn(-c2nc3ccccc3n2S(=O)(=O)CC)cc1C(=O)OC(C)(C)C [Compound 2-74] as the compound, how does the “acaricidal efficacy” value read?
The value was “D or higher”.

Which “acaricidal efficacy” value does the source give for CCS(=O)(=O)n1c(-n2cc(/C=C/C(=O)OCc3ccc(C(F)(F)F)cc3)c(C(F)(F)F)n2)nc2ccccc21 [Compound 2-115] here?
The value was “D or higher”.

For CCS(=O)(=O)n1c(-n2cc(/C=C/C(=O)OC(C(F)(F)F)C(F)(F)F)c(C(F)(F)F)n2)nc2ccccc21 [Compound 2-112], which “acaricidal efficacy” value is on record?
Its value is “D or higher”.

CCS(=O)(=O)n1c(-n2cc(Br)c(OC(F)F)n2)nc2ccccc21 [Compound 2-42] was tested. Which “acaricidal efficacy” value did it give?
Its value is “D or higher”.

How did the “acaricidal efficacy” value turn out when CCS(=O)(=O)n1c(-n2cc(CCc3ccc(C(F)(F)F)cc3)cn2)nc2ccccc21 [Compound 2-4] was run?
The value was “D or higher”.

How did the “acaricidal efficacy” value turn out when CCS(=O)(=O)n1c(-n2cc(C#Cc3ccccc3)c(C(=O)OC(C)(C)C)n2)nc2ccccc21 [Compound 2-106] was run?
The value was “D or higher”.

For CCS(=O)(=O)n1c(-n2cc(C(=O)OC(C)(C)C)c(Br)n2)nc2ccccc21 [Compound 2-48], which “acaricidal efficacy” value is on record?
The value was “D or higher”.

How did the “acaricidal efficacy” value turn out when CCCCCCC#Cc1cnn(-c2nc3ccccc3n2S(=O)(=O)CC)c1 [Compound 2-7] was run?
The value was “D or higher”.

With CCS(=O)(=O)n1c(-n2cc(/C=C/C(=O)OCC34CC5CC(CC(C5)C3)C4)c(C(F)(F)F)n2)nc2ccccc21 [Compound 2-116] as the compound, how does the “acaricidal efficacy” value read?
The value was “D or higher”.

How did the “acaricidal efficacy” value turn out when CCS(=O)(=O)n1c(-n2ccc(C(=O)OC(C)(C)C)c2)nc2ccccc21 [Compound 7-1] was run?
The value was “D or higher”.

Which “acaricidal efficacy” value does the source give for CCCCCc1cn(-c2nc3ccccc3n2S(=O)(=O)CC)nc1C(F)(F)F [Compound 2-125] here?
The value was “D or higher”.

How did the “acaricidal efficacy” value turn out when CCS(=O)(=O)n1c(-n2cnc(C#Cc3ccccc3)c2)nc2ccccc21 [Compound 1-18] was run?
The value was “D or higher”.

CCS(=O)(=O)n1c(-n2cc(S(=O)(=O)C(C)C)c(C(F)(F)F)n2)nc2ccccc21 [Compound 2-56] was tested. Which “acaricidal efficacy” value did it give?
The value was “D or higher”.

CCS(=O)(=O)n1c(-n2cc(Cl)c(C(=O)OC(C)(C)C)n2)nc2ccccc21 [Compound 2-44] was tested. Which “acaricidal efficacy” value did it give?
The value was “D or higher”.

How did the “acaricidal efficacy” value turn out when CCS(=O)(=O)n1c(-n2cc(C(=O)OC(C)(C)C)c(C(C)C)n2)nc2ccccc21 [Compound 2-57] was run?
The value was “D or higher”.

How did the “acaricidal efficacy” value turn out when CCS(=O)(=O)n1c(-n2cc(C(=O)OC(C)(C)C)c(C#Cc3ccccc3)n2)nc2ccccc21 [Compound 2-88] was run?
The value was “D or higher”.

How did the “acaricidal efficacy” value turn out when CCCc1nn(-c2nc3ccccc3n2S(=O)(=O)CC)cc1C(=O)OC(C)(C)C [Compound 2-72] was run?
The value was “D or higher”.

How did the “acaricidal efficacy” value turn out when CCS(=O)(=O)n1c(-n2cc(C(=O)OC(C)(C)C)c(CCC3CC3)n2)nc2ccccc21 [Compound 2-84] was run?
Its value is “D or higher”.

Which “acaricidal efficacy” value does the source give for CCS(=O)(=O)n1c(-n2cnc(C(=O)OC(C)(C)C)c2)nc2ccccc21 [Compound 1-33] here?
Its value is “D or higher”.

How did the “acaricidal efficacy” value turn out when CCOC(=O)/C=C/c1ccn(-c2nc3ccccc3n2S(=O)(=O)CC)n1 [Compound 2-36] was run?
The value was “D or higher”.

Which “acaricidal efficacy” value does the source give for CCS(=O)(=O)n1c(-n2cc(C(=O)CC(C)(C)C)c(CC(C)(C)C)n2)nc2ccccc21 [Compound 2-131] here?
The value was “D or higher”.

With CCS(=O)(=O)n1c(-n2cc(CCCOC(=O)C(C)(C)C)c(C(F)(F)F)n2)nc2ccccc21 [Compound 2-134] as the compound, how does the “acaricidal efficacy” value read?
Its value is “D or higher”.

With CCS(=O)(=O)n1c(-n2cc(C(=O)OC(C)(C)C)c(C(C)(C)C)n2)nc2ccccc21 [Compound 2-58] as the compound, how does the “acaricidal efficacy” value read?
The value was “D or higher”.

How did the “acaricidal efficacy” value turn out when CCS(=O)(=O)n1c(-n2cc(C(C)=O)c(C)n2)nc2ccccc21 [Compound 2-119] was run?
Its value is “D or higher”.
